We go through three molecules from patent US10828337B2, “Materials and methods for controlling vasculogenesis from endothelial colony forming cells” (Indiana University Research and Technology Corporation, priority 2011, dated 2020).

For the test, the system named is ECFC vacuole formation. As to the kind of experiment: Perturbation of ECFC vacuole formation by inhibitors. The class given is cell-based, Human. To be noted: for way in which total vacuole area was decreased: Casin 2.5 μM (Cdc42), NSC23766 25 μM (Rac1), 3.0 mg/ml oligomer rich matrices (FIGS. 11 G, H); for effect on ECFC vacuole formation: MAB17781 1 μg/ml, Casin 2.5 μM, NSC23766 25 μM, TIMP-3 5 μg/ml. The method, then: For analysis of in vitro vacuole formation, cultures were fixed with 4% paraformaldehyde for 20 minutes at 48 hours. Scaffolds were stained with 0.1% toluidine blue 0 in 30% methanol for 20 minutes and then washed with PBS.
A Leica DM IRE2 microscope (Leica Microsystems, Bannockburn, Ill.) with attached Retiga 4000R digital camera (QImaging, Surrey, BC, Canada) was used to image the entire area of each matrix using a 10× objective and the middle 9 fields of view were used for analysis. Lumens were quantified using a standard image analysis system Metamorph (Molecular Devices, Sunnyvale, Calif.). […] Lumens were defined as areas completely surround by a toluidine blue labeled endothelial cell membrane.
Chemical inhibitors TIMP-3 (5 μg/ml, R&D Systems, Minneapolis, Minn.), Casin (2.5 μM), NSC23766 (25 μM), or MAB17781 (1 μg/ml, R&D Systems, Minneapolis, Minn.) were added into the media during ECFC culture in 3.0 mg/ml matrices polymerized with the oligomer rich fraction. Treatments were conducted in duplicate and at least three independent experiments were conducted.
To first determine if this signaling axis was involved in ECFC vacuole formation chemical inhibitors to β1 integrin, Cdc42, Rac1, and MT1-MMP were added to cultures to test if they would alter cell behavior.

The mark [1] stands for this setting: 3.0 mg/ml oligomer rich matrices.

In the case of `CCN(CC)CCCC(C)Nc1nc(C)cc(Nc2ccc3nc(C)cc(N)c3c2)n1` (centres unmarked) [NSC23766], the “way in which total vacuole area was decreased” value is recorded as “decreased total vacuole area by decreasing average vacuole area”. Under setting [1], the “effect on ECFC vacuole formation” value is “inhibited ECFC vacuole formation”.

`OCCNC1CCCc2c1[nH]c1ccc(-c3ccccc3)cc21` (centres unmarked) [Casin]: the “way in which total vacuole area was decreased” value was “decreased total vacuole area by decreasing vacuole density”. The “effect on ECFC vacuole formation” value under setting [1] was “inhibited ECFC vacuole formation”.

B1: TIMP-3: inhibitor (R&D Systems) added to the cultures to inhibit MT1-MMP activity (protein, UniProt P35625 24-211, looked up)
Metalloproteinase inhibitor 3: CTCSPSHPQDAFCNSDIVIRAKVVGKKLVKEGPFGTLVYTIKQMKMYRGFTKMPHVQYIHTEASESLCGLKLEVNKYQYLLTGRVYDGKMYTGLCNFVERWDQLTLSQRKGLNYRYHLGCNCKIKSCYYLPCFVTSKNECLWTDMLSNFGYPGYQSKHYACIRQKGGYCSWYRGWAPPDKSIINATDP
In the case of B1, the “effect on ECFC vacuole formation” value under setting [1] was “inhibited ECFC vacuole formation”. The vacuole density (inhibitor in media (MAB17781 1 μg/ml, TIMP-3 5 μg/ml), 3.0 mg/ml oligomer rich matrices, control 11.24±0.65) stood at 3.31±1.38 vacuoles/mm^2. Under “inhibitor in media (MAB17781 1 μg/ml, TIMP-3 5 μg/ml), 3.0 mg/ml oligomer rich matrices, control 536.09±138.24”, this molecule displayed a vacuole area of 146.04±45.86 μm^2. The total vacuole area (inhibitor in media (MAB17781 1 μg/ml, TIMP-3 5 μg/ml), 3.0 mg/ml oligomer rich matrices, control 19103.60±5447.67) came to 2288.76±1685.92 μm^2.
